≈ marks a conversion by molar mass, not a printed value. Read-outs that look alike come from different tables or passages of the source.
Legend:
Format in all cases: cell-based
Botrtyis cinerea (Bc) = experiment: In vitro pathogen growth inhibition assay, Bc; conditions: 48 h
Method in brief: (§1)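 Value reported is the compound concentration reaching ≥90% growth inhibition, from OD readings at 24 and 48 h after blank subtraction, confirmed visually. Inoculum was spores diluted in 17% V8 medium, except Rs, using 1.5 mm mycelial plugs in ¼ PDB; actual compound concentration corrected via OD600.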

[1] = test system: Collectotrichum graminicola (Cg); experiment: In vitro pathogen growth inhibition assay, Cg; conditions: 48 h
Method in brief: as §1

Diplodia maydis (Dm) = experiment: In vitro pathogen growth inhibition assay, Dm; conditions: Stenocarpella maydis, 48 h
Method in brief: (§2)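 Spores of Dm, Fv and Pc were diluted in 17% V8 liquid medium; Rs used 1.5 mm mycelial plugs in ¼ PDB. Compounds from 2.5 mg/ml DMSO stocks were combined with inoculum, growth was read by OD600 at 24 and 48 h with blank subtraction, and the reported value is the concentration giving ≥90% inhibition.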

[2] = test system: Fusarium moniliforme (Fm); experiment: In vitro pathogen growth inhibition assay, Fm; conditions: Fusarium verticillioides
Method in brief: as §1

[3] = test system: Fusarium virguliforme (Fv); experiment: In vitro pathogen growth inhibition assay, Fv
Method in brief: as §2

[4] = test system: Phytophthora capsici (Pc); experiment: In vitro pathogen growth inhibition assay, Pc; conditions: 48 h
Method in brief: as §2

Rhizoctonia solani (Rs) = experiment: In vitro pathogen growth inhibition assay, Rs (mycelial plugs); conditions: Rhizoctonia solani, 48 h
Method in brief: as §2

Septoria tritici (St) = experiment: In vitro pathogen growth inhibition assay, St; conditions: Zymoseptoria tritici, 48 h
Method in brief: as §1

[5] = ≥90% growth inhibition, 48 hours, vs 2% DMSO control, read-out: Compound Concentration (ppm) sufficient for ≥90% inhibition of Bc
[6] = ≥90% growth inhibition, 48 hours, vs 2% DMSO control, read-out: Compound Concentration (ppm) sufficient for ≥90% inhibition of Cg
[7] = ≥90% growth inhibition, 48 hours, vs 2% DMSO control, read-out: Compound Concentration (ppm) sufficient for ≥90% inhibition of Dm
[8] = ≥90% growth inhibition, 48 hours, vs 2% DMSO control, read-out: Compound Concentration (ppm) sufficient for ≥90% inhibition of Fm
[9] = ≥90% growth inhibition, 48 hours, vs 2% DMSO control, read-out: Compound Concentration (ppm) sufficient for ≥90% inhibition of Fv
[10] = ≥90% growth inhibition, 48 hours, vs 2% DMSO control, read-out: Compound Concentration (ppm) sufficient for ≥90% inhibition of Pc
[11] = ≥90% growth inhibition, mycelial plugs, 48 hours, vs 2% DMSO control, read-out: Compound Concentration (ppm) sufficient for ≥90% inhibition of Rs
[12] = ≥90% growth inhibition, 48 hours, vs 2% DMSO control, read-out: Compound Concentration (ppm) sufficient for ≥90% inhibition of St
[13] = concentration sufficient to ≥90% inhibition of growth, 48 hours vs 2% DMSO control, read-out: Compound Concentration (ppm) for ≥90% inhibition, Bc
[14] = concentration sufficient to ≥90% inhibition of growth, 48 hours vs 2% DMSO control, read-out: Compound Concentration (ppm) for ≥90% inhibition, Cg
[15] = concentration sufficient to ≥90% inhibition of growth, 48 hours vs 2% DMSO control, read-out: Compound Concentration (ppm) for ≥90% inhibition, Dm
[16] = concentration sufficient to ≥90% inhibition of growth, 48 hours vs 2% DMSO control, read-out: Compound Concentration (ppm) for ≥90% inhibition, Fm
[17] = concentration sufficient to ≥90% inhibition of growth, 48 hours vs 2% DMSO control, read-out: Compound Concentration (ppm) for ≥90% inhibition, Fv
[18] = concentration sufficient to ≥90% inhibition of growth, 48 hours vs 2% DMSO control, read-out: Compound Concentration (ppm) for ≥90% inhibition, Pc
[19] = concentration sufficient to ≥90% inhibition of growth, 48 hours vs 2% DMSO control, read-out: Compound Concentration (ppm) for ≥90% inhibition, Rs
[20] = concentration sufficient to ≥90% inhibition of growth, 48 hours vs 2% DMSO control, read-out: Compound Concentration (ppm) for ≥90% inhibition, St

| IC90 (Botrtyis cinerea (Bc); [5]) [µg/mL] | IC90 [1, 6] [µg/mL] | IC90 (Diplodia maydis (Dm); [7]) [µg/mL] | IC90 [2, 8] [µg/mL] | IC90 [3, 9] [µg/mL] | IC90 [4, 10] [µg/mL] | IC90 (Rhizoctonia solani (Rs); [11]) [µg/mL] | IC90 (Septoria tritici (St); [12]) [µg/mL] | IC90 (Botrtyis cinerea (Bc); [13]) [µg/mL] | IC90 [1, 14] [µg/mL] | IC90 (Diplodia maydis (Dm); [15]) [µg/mL] | IC90 [2, 16] [µg/mL] | IC90 [3, 17] [µg/mL] | IC90 [4, 18] [µg/mL] | IC90 (Rhizoctonia solani (Rs); [19]) [µg/mL] | IC90 (Septoria tritici (St); [20]) [µg/mL] | SMILES |
| --- | --- | --- | --- | --- | --- | --- | --- | --- | --- | --- | --- | --- | --- | --- | --- | --- |
| 0.4 (≈ 0.696 µM) | 2 (≈ 3.48 µM) | 2 (≈ 3.48 µM) | 0.08 (≈ 0.139 µM) | 0.4 (≈ 0.696 µM) | > 50 | 0.4 (≈ 0.696 µM) | > 50 |  |  |  |  |  |  |  |  | CCNC(=O)[C@H](C)n1c(=O)c2c(C)c(C(=O)OCC)sc2n(C[C@H](OCCC#N)c2cc(F)ccc2OC)c1=O [Compound I-305] |
|  |  |  |  |  |  |  |  | 50 (≈ 87.9 µM) | > 50 | > 50 | 10 (≈ 17.6 µM) | > 50 | > 50 | > 50 | > 50 | CCNC(=O)[C@H](C)n1c(=O)c2c(C)c(-n3cccn3)sc2n(C[C@H](OCCC#N)c2cc(F)ccc2OC)c1=O [Compound I-306] |
|  |  |  |  |  |  |  |  | 50 (≈ 83 µM) | > 50 | > 50 | 10 (≈ 16.6 µM) | 10 (≈ 16.6 µM) | > 50 | > 50 | > 50 | COc1ccc(F)cc1[C@H](Cn1c(=O)n(C(C)(C)C(=O)NC(C)C)c(=O)c2c(C)c(-n3nccn3)sc21)OC(=O)CO [Compound I-309] |
|  |  |  |  |  |  |  |  | 50 (≈ 85.1 µM) | > 50 | > 50 | 50 (≈ 85.1 µM) | > 50 | > 50 | > 50 | > 50 | COCCO[C@@H](Cn1c(=O)n([C@@H](C)C(=O)NC(C)C)c(=O)c2c(C)c(-n3cccn3)sc21)c1cc(F)ccc1OC [Compound I-311] |
|  |  |  |  |  |  |  |  | > 50 | > 50 | > 50 | 10 (≈ 16.8 µM) | > 50 | > 50 | 2 (≈ 3.36 µM) | > 50 | COc1ccc(F)cc1[C@H](Cn1c(=O)n([C@@H](C)C(=O)NC2CCC2)c(=O)c2c(C)c(-n3cccn3)sc21)OCCC#N [Compound I-312] |
| > 50 | 50 (≈ 84.1 µM) | > 50 | 2 (≈ 3.36 µM) | 50 (≈ 84.1 µM) | > 50 | 50 (≈ 84.1 µM) | > 50 |  |  |  |  |  |  |  |  | COc1ccc(F)cc1[C@H](Cn1c(=O)n([C@@H](C)C(=O)N2CCCC2)c(=O)c2c(C)c(-n3cccn3)sc21)OCCC#N [Compound I-313] |
| > 50 | 50 (≈ 84.1 µM) | > 50 | 2 (≈ 3.36 µM) | 10 (≈ 16.8 µM) | > 50 | > 50 | > 50 |  |  |  |  |  |  |  |  | COc1ccc(F)cc1[C@H](Cn1c(=O)n([C@H](C)C(=O)N2CCCC2)c(=O)c2c(C)c(-n3cccn3)sc21)OCCC#N [Compound I-314] |
| 0.4 (≈ 0.696 µM) | 0.08 (≈ 0.139 µM) | 0.4 (≈ 0.696 µM) | 0.08 (≈ 0.139 µM) | 0.4 (≈ 0.696 µM) | 2 (≈ 3.48 µM) | 0.08 (≈ 0.139 µM) | > 50 |  |  |  |  |  |  |  |  | COc1ccc(F)cc1[C@@](O)(CO)Cn1c(=O)n(C(C)(C)C(=O)NC(C)C)c(=O)c2c(C)c(-n3nccn3)sc21 [Compound I-315] |
|  |  |  |  |  |  |  |  | 50 (≈ 83.7 µM) | 50 (≈ 83.7 µM) | > 50 | 10 (≈ 16.7 µM) | ≥ 10 | > 50 | > 50 | > 50 | COc1ccc(F)cc1[C@H](Cn1c(=O)n(C(C)(C)C(=O)NC(C)C)c(=O)c2c(C)c(-n3cncn3)sc21)OCCC#N [Compound I-317] |
|  |  |  |  |  |  |  |  | 50 (≈ 87.3 µM) | > 50 | > 50 | 10 (≈ 17.5 µM) | > 50 | > 50 | > 50 | > 50 | CCNC(=O)C(C)(C)n1c(=O)c2c(C)c(-n3nccn3)sc2n(C[C@@H](OC(C)=O)c2cc(F)ccc2OC)c1=O [Compound I-318] |
| 50 (≈ 83 µM) | > 50 | > 50 | 2 (≈ 3.32 µM) | 10 (≈ 16.6 µM) | > 50 | > 50 | > 50 |  |  |  |  |  |  |  |  | COc1ccc(F)cc1[C@H](Cn1c(=O)n(C(C)(C)C(=O)NC(C)C)c(=O)c2c(C)c(-n3nccn3)sc21)OCCCO [Compound I-319] |
